The text below walks through data of patent US20240294572A1, “Antimicrobial Peptides” (priority 2021, published 2024).

One series relates to S. aureus USA300 LAC. The series is classed as cell-based. In short, it runs like this: (§1)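 Broth microdilution after CLSI M07-A10, modified: 2-fold peptide dilutions plus log-phase bacteria diluted to 0.001 OD, incubated overnight at 37° C, absorbance read at 630 nm. Medium effects probed with varied pH, NaCl or human serum in TSB (control pH 7.4), with 10%, 50%, 100% TSB, and with MHB.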

For another series, the system named is E. coli ATCC 25922. The series is classed as cell-based. The gist of the method:
as §1

In series [1] the test system is human red blood cells (hRBCs). The series is classed as cell-based. The gist of the method:
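Saline-washed human erythrocytes at 2% (v/v) incubated with peptides at various concentrations, 37° C, 1 hour. Haemoglobin release read at 545 nm in supernatant after centrifugation; 1% Triton X-100 = 100% lysis, PBS = 0%. HC50 is the peptide concentration giving 50% lysis; CSI = HC50/MIC against MRSA.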

Series [2] has as its system Klebsiella pneumonia ATCC 13883. The series is described as follows: Antibacterial broth microdilution MIC. The series is classed as cell-based. In short, it runs like this:
(§2)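 Broth microdilution per CLSI M07-A10 with minor changes: 2-fold peptide dilutions plus log-phase bacteria (OD600 ~0.5) diluted to 0.001 OD, in TSB. Incubated overnight at 37 °C; growth read at 630 nm.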

For another series, the system named is S. aureus USA200. The series is classed as cell-based. In short, it runs like this: as §2
A further series relates to S. aureus Mu50. The series is classed as cell-based. In short, it runs like this: as §2
The next series deals with S. aureus Newman. The series is classed as cell-based. In short, it runs like this: as §2
The subject of series [3] is clinical strains of S. aureus, including USA200, USA400, Newman, and Mu50. The series is classed as cell-based. In short, it runs like this: as §2
Another series has as its system P. aeruginosa PAO1. The series is classed as cell-based. In short, it runs like this: as §2
The next series has as its system S. aureus USA400. The series is classed as cell-based. The gist of the method:
as §2

The subject of series [4] is trypsin, chymotrypsin, pancreas elastase, S. aureus V8 protease, and fungal proteinase K.
Procedure: The peptide was incubated with various proteases in 10 mM PBS buffer (pH 7.4) at 37° C. for 24 hours. Aliquots (20 μL) of the reaction solutions were taken at 3 and 24 hours. The reaction was then stopped by mixing with 20 μL of 2×SDS loading buffer and boiling in a water bath for ˜10 minutes. For the SDS-PAGE analysis, 10 μL of each sample was loaded to the well of a 5% stacking/18% resolving tricine gel and run at a constant current of 35 mA. The gels were stained using Coomassie Brilliant Blue.
In series [5] the test system is S. aureus JE2 (SAUSA300, wild type). The series is classed as cell-based. The following applies: JE2 (SA, wild type). How it is done:
(§3) The antimicrobial susceptibility of over 20 MRSA transposon mutants were also tested, based on a transposon library screening, in the presence of LL-37 peptides (Golla, et al. (2020) ACS Infect. Dis., 6:1866-1881). This Nebraska Transposon Mutant Library of S. aureus USA300 consists of 1920 mutants, each with one nonessential gene disabled due to a transposon insertion (Fey, et al. (2013) mBio 4:e00537-12). The correct insertion of the transposon to each Staph mutant had been verified (Golla, et al. (2020) ACS Infect. Dis., 6:1866-1881). Antimicrobial susceptibility to the new peptide C10-KR8d was evaluated in the same manner as MIC assays. Susceptible strains could be inhibited at a peptide concentration lower than the MIC against the wild strain S. aureus JE2.

Series [6] deals with S. aureus USA300 transposon mutant SAUSA300_0647 (vraF). The series is classed as cell-based. How it is done:
as §3

For series [7], the system named is S. aureus USA300 transposon mutant SAUSA300_1036. The series is classed as cell-based. On the procedure:
as §3

In series [8] the test system is S. aureus USA300 transposon mutant SAUSA300_1515. The series is classed as cell-based. On the procedure:
as §3

The test system of series [9] is S. aureus USA300 transposon mutant SAUSA300_1962. The series is classed as cell-based. On the procedure: as §3
For series [10], the system named is MCP-1, IL-17A, IL-10, TNF-α. Description: Cytokine quantification in tissues surrounding catheters. The series is classed as in vivo, mice. The following applies: day 3 after peptide treatment. On the procedure: The catheter-associated tissue homogenates/plasma samples stored at −80° C. were thawed to room temperature for the cytokines quantification using the BioLegend® individual mouse cytokine kit. The protocol for sample preparation and analysis was per the manufacturer manual. The samples were in duplicates with appropriate standards. The data are represented as mean±SD. Plots were generated using GraphPad prism 7, where * indicates p<0.05, **p<0.01, ***p<0.001, and NS means no significance (nonparametric, unpaired, Mann-Whitney test).

In brackets after ≈: the same amount, converted by molar mass. Where two headings read alike, the source gives them in different places. Non-standard residues stand in square brackets, D forms with d. Residues, ends and D or L forms follow the SMILES beside them. *: point of attachment. Decanoyl = CCCCCCCCCC(=O)*

For `CCCCCCCCCC(=O)N[C@@H](CCCCN)C(=O)N[C@@H](CCCNC(=N)N)C(=O)N[C@H](C(=O)N[C@@H](Cc1c[nH]c2ccccc12)C(=O)N[C@@H](CCC(N)=O)C(=O)N[C@@H](CCCNC(=N)N)C(=O)N[C@H](C(=O)N[C@@H](CCCCN)C(N)=O)[C@@H](C)CC)[C@@H](C)CC` [Peptide C10-KR8] (Decanoyl-KRIWQRIK-NH2), the MIC in the presence of 5 or 10% human serum in the series on S. aureus USA300 LAC (5 or 10% human serum) is greater than 25 µM. The “MIC (μM) SA” value in the series with S. aureus USA300 LAC (USA300) is 1.5 to 3.1 µM. In addition, the “Minimal inhibitory concentration (MIC), pH = 6.8” value with S. aureus USA300 LAC (USA300, pH 6.8) was 3.1-6.2 μM. Besides, in the series with E. coli ATCC 25922, the “MIC (μM) EC” value was 12.5 µM (≈ 16 µg/mL). The “HC50” value in [1] was 300 µM. In addition, the “MIC (μM) KP” value in series [2] turned out to be 50 µM (≈ 64 µg/mL). Also, the “Minimal inhibitory concentration, USA200” value with S. aureus USA200 came out at 3.1 µM (≈ 3.97 µg/mL). Besides, the “Minimal inhibitory concentration, Mu50” value in the series on S. aureus Mu50 was found to be 3.1 µM (≈ 3.97 µg/mL). Further, in the series with S. aureus Newman, the “Minimal inhibitory concentration, Newman” value stood at 3.1 µM (≈ 3.97 µg/mL). For the same molecule, the “MIC against clinical strains of S. aureus” value in series [3] was 1.6 to 6.2 µM. In addition, in the series on P. aeruginosa PAO1, the “MIC (μM) PA” value turned out to be 6.2 µM (≈ 7.94 µg/mL). For the same molecule, the “Minimal inhibitory concentration, USA400” value with S. aureus USA400 was 3.1 µM (≈ 3.97 µg/mL). In addition, in series [4] (nearly all the cases, except for S. aureus V8 protease, 37° C., PBS pH 7.4), the “time to degradation by proteases” value is no more than 3 h.
Turning to `CCCCCCCCCC(=O)N[C@H](CCCCN)C(=O)N[C@H](CCCNC(=N)N)C(=O)N[C@@H](C(=O)N[C@H](Cc1c[nH]c2ccccc12)C(=O)N[C@H](CCC(N)=O)C(=O)N[C@H](CCCNC(=N)N)C(=O)N[C@@H](C(=O)N[C@H](CCCCN)C(N)=O)[C@H](C)CC)[C@H](C)CC` [Peptide C10-KR8d] (Decanoyl-[dK][dR][dI][dW][dQ][dR][dI][dK]-NH2), the “reduction of anti-MRSA activity” value in the series on S. aureus USA300 LAC (10% serum, pH 7.4) was 2 fold. The “MIC (μM) SA” value against S. aureus USA300 LAC (USA300) was 1.5 to 3.1 µM. Besides, in the series on S. aureus USA300 LAC (USA300), the “MIC values (Table 4, text summary)” value lay within 3.1 to 6.2 µM. The “MIC (μM) EC” value with E. coli ATCC 25922 was 12.5 µM (≈ 16 µg/mL). For the same molecule, the “Minimal inhibitory concentration against E. coli, 100% TSB” value in the series with E. coli ATCC 25922 amounted to 6.2 µM (≈ 7.94 µg/mL). Further, the minimal inhibitory concentration (MIC) in series [5] was 3.1 µM (≈ 3.97 µg/mL); in series [6] (mutant SAUSA300_0647 vraF, 50% TSB), 1.6 to 3.1 µM; in series [7] (mutant SAUSA300_1036, 50% TSB) it was 1.6 to 3.1 µM; in series [8] (mutant SAUSA300_1515, 50% TSB), 1.6 to 3.1 µM; in series [9] (mutant SAUSA300_1962, 50% TSB), 1.6 to 3.1 µM. The “Susceptible?” value in [6] (mutant SAUSA300_0647 vraF versus WT), in [7] (mutant SAUSA300_1036 versus WT), in series [8] (mutant SAUSA300_1515 versus WT) and in series [9] (mutant SAUSA300_1962 versus WT) was “Yes” each time. Also, the concentration for 50% haemolysis (HC50) in series [1] (red cells of human, 1 h) worked out at 300 µM. In [2], the “MIC (μM) KP” value was 25 µM (≈ 32 µg/mL). Also, the “level of IL-10 in surrounding tissues of catheters” value in series [10] is “decrease”. In addition, in series [10], the “level of IL-17A in surrounding tissues of catheters” value is “up-regulation”. Besides, the “level of MCP-1/CCL2 in surrounding tissues of catheters” value in [10] is “up-regulation”. Further, the “level of TNFα in surrounding tissues of catheters” value in [10] is “decrease”. The “Minimal inhibitory concentration, USA200” value with S. aureus USA200 is 1.6 µM (≈ 2.05 µg/mL). For the same molecule, in the series on S. aureus Mu50, the “Minimal inhibitory concentration, Mu50” value stood at 3.1 µM (≈ 3.97 µg/mL). Also, the “Minimal inhibitory concentration, Newman” value in the series with S. aureus Newman is 1.6 µM (≈ 2.05 µg/mL). For the same molecule, the “Minimal inhibitory concentration, USA400” value in the series on S. aureus USA400 came out at 1.6 µM (≈ 2.05 µg/mL). For the same molecule, the “stability to five proteases” value in series [4] (trypsin, chymotrypsin, pancreas elastase, S. aureus V8 protease, fungal proteinase K, 3 and 24 hours) is “resistant to the five proteases”.
